Laboratory results from US10947271B2, “Antibacterial agents” (THE UNIVERSITY OF QUEENSLAND, priority 2014, dated 2021).

How the values were obtained:
Type in all cases: cell-based
Conditions in all cases: 24 h incubation, visual reading
[1] = system: Streptococcus pneumoniae MDR ATCC 700677; experiment: MIC assay, S. pneumoniae MDR ATCC 700677
How it was run: (§1)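 Overnight MHB cultures at 37° C were diluted 40-fold and grown 2-3 hrs to mid-log, then added at 5×10e5 CFU/mL to twofold compound dilutions (8 to 0.003 μg/ml). Plates were incubated 24 h at 37° C and MIC scored by eye.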

[2] = system: Enterococcus faecium MDR Van A ATCC 51559; experiment: MIC assay, E. faecium MDR Van A ATCC 51559
How it was run: as §1

[3] = system: Staphylococcus aureus MRSA ATCC 43300; experiment: MIC assay, S. aureus MRSA ATCC 43300
How it was run: as §1

| Minimum Inhibitory Concentration (MIC) S. pneumoniae ATCC 700677 [1] | Minimum Inhibitory Concentration (MIC) E. faecium ATCC51559 [2] | Minimum Inhibitory Concentration (MIC) Staph. aureus ATCC43300 [3] | SMILES |
| --- | --- | --- | --- |
| xxx (xxx = 0.1-<1) | x (x = >4) | xxx (xxx = 0.1-<1) | CNC(=O)C(CCCCNC(=O)C1NC(=O)C2NC(=O)C(NC(=O)C3NC(=O)C(CC(N)=O)NC(=O)C(NC(=O)C(CC(C)C)NC)C(O)c4ccc(c(Cl)c4)Oc4cc3cc(c4OC3OC(CO)C(O)C(O)C3OC3CC(C)(N)C(O)C(C)O3)Oc3ccc(cc3Cl)C2O)c2ccc(O)c(c2)-c2c(O)cc(O)cc21)NC(=O)C(CCCCN)NC(=O)C(CCCCN)NC(=O)c1ccc(Oc2ccc(F)cc2)cc1 (stereo not drawn) [MCC_000514] |
| xxxxx (xxxxx = <0.01) | x (x = >4) | xxxxxx | CNC(=O)C(CCCCNC(=O)C1NC(=O)C2NC(=O)C(NC(=O)C3NC(=O)C(CC(N)=O)NC(=O)C(NC(=O)C(CC(C)C)NC)C(O)c4ccc(c(Cl)c4)Oc4cc3cc(c4OC3OC(CO)C(O)C(O)C3OC3CC(C)(N)C(O)C(C)O3)Oc3ccc(cc3Cl)C2O)c2ccc(O)c(c2)-c2c(O)cc(O)cc21)NC(=O)C(CCCCN)NC(=O)C(CCCCN)NC(=O)c1ccc(Oc2ccc(Cl)cc2)cc1 (stereo not drawn) [MCC_000516] |
| xxxxxx | xxx (xxx = 0.1-<1) | xxxx (xxxx = 0.01-<0.1) | CNC(=O)C(CCCCNC(=O)C1NC(=O)C2NC(=O)C(NC(=O)C3NC(=O)C(CC(N)=O)NC(=O)C(NC(=O)C(CC(C)C)NC)C(O)c4ccc(c(Cl)c4)Oc4cc3cc(c4OC3OC(CO)C(O)C(O)C3OC3CC(C)(N)C(O)C(C)O3)Oc3ccc(cc3Cl)C2O)c2ccc(O)c(c2)-c2c(O)cc(O)cc21)NC(=O)C(CCCCN)NC(=O)C(CCCCNC(=O)c1ccc(Oc2ccc(Cl)cc2)cc1)NC(=O)c1ccc(Oc2ccc(Cl)cc2)cc1 (stereo not drawn) [MCC_000517] |
| xxx (xxx = 0.1-<1) | x (x = >4) | xxx (xxx = 0.1-<1) | CNC(=O)C(CCCCNC(=O)C1NC(=O)C2NC(=O)C(NC(=O)C3NC(=O)C(CC(N)=O)NC(=O)C(NC(=O)C(CC(C)C)NC)C(O)c4ccc(c(Cl)c4)Oc4cc3cc(c4OC3OC(CO)C(O)C(O)C3OC3CC(C)(N)C(O)C(C)O3)Oc3ccc(cc3Cl)C2O)c2ccc(O)c(c2)-c2c(O)cc(O)cc21)NC(=O)C(CCCCN)NC(=O)C(CCCCN)NC(=O)c1ccc(OCc2ccccc2)cc1 (stereo not drawn) [MCC_000518] |
| xxxxx (xxxxx = <0.01) | xx (xx = 1-4) | xxxxx (xxxxx = <0.01) | CNC(=O)C(CCCCNC(=O)C1NC(=O)C2NC(=O)C(NC(=O)C3NC(=O)C(CC(N)=O)NC(=O)C(NC(=O)C(CC(C)C)NC)C(O)c4ccc(c(Cl)c4)Oc4cc3cc(c4OC3OC(CO)C(O)C(O)C3OC3CC(C)(N)C(O)C(C)O3)Oc3ccc(cc3Cl)C2O)c2ccc(O)c(c2)-c2c(O)cc(O)cc21)NC(=O)C(CCCCN)NC(=O)C(CCCCNC(=O)c1ccc(OCc2ccccc2)cc1)NC(=O)c1ccc(OCc2ccccc2)cc1 (stereo not drawn) [MCC_000519] |
| xx (xx = 1-4) | x (x = >4) | xx (xx = 1-4) | CNC(=O)[C@H](CCCCNC(=O)[C@H]1NC(=O)[C@H]2NC(=O)[C@H](NC(=O)[C@@H]3NC(=O)[C@H](CC(N)=O)NC(=O)[C@H](NC(=O)[C@@H](CC(C)C)NC)[C@H](O)c4ccc(c(Cl)c4)Oc4cc3cc(c4O[C@@H]3O[C@H](CO)[C@@H](O)[C@H](O)[C@H]3O)Oc3ccc(cc3Cl)[C@H]2O)c2ccc(O)c(c2)-c2c(O)cc(O)cc21)NC(=O)[C@H](CCCCN)NC(=O)[C@H](CCCCN)NC(=O)[C@H](CCCCNC(=O)CCCOc1ccccc1)NC(=O)CCCOc1ccccc1 [MCC_000604] |
| xxxxx (xxxxx = <0.01) | xx (xx = 1-4) | xxxxx (xxxxx = <0.01) | CCCCCCCCCCCCCC(=O)N[C@@H](CCCCN)C(=O)N[C@@H](CCCCNC(=O)[C@H]1NC(=O)[C@H]2NC(=O)[C@H](NC(=O)[C@@H]3NC(=O)[C@H](CC(N)=O)NC(=O)[C@H](NC(=O)[C@@H](CC(C)C)NC)[C@H](O)c4ccc(c(Cl)c4)Oc4cc3cc(c4O[C@@H]3O[C@H](CO)[C@@H](O)[C@H](O)[C@H]3O[C@H]3C[C@](C)(N)[C@H](O)[C@H](C)O3)Oc3ccc(cc3Cl)[C@H]2O)c2ccc(O)c(c2)-c2c(O)cc(O)cc21)C(=O)NC [MCC_000627] |
| xxxxx (xxxxx = <0.01) | xxxxx (xxxxx = <0.01) | xxxxx (xxxxx = <0.01) | CCCCCCCCCCCCCC(=O)NC(CCCCN)C(=O)NC(CCCCN)C(=O)NC(CCCCN)C(=O)NC(CCCCNC(=O)C1NC(=O)C2NC(=O)C(NC(=O)C3NC(=O)C(CC(N)=O)NC(=O)C(NC(=O)C(CC(C)C)NC)C(O)c4ccc(c(Cl)c4)Oc4cc3cc(c4OC3OC(CO)C(O)C(O)C3OC3CC(C)(N)C(O)C(C)O3)Oc3ccc(cc3Cl)C2O)c2ccc(O)c(c2)-c2c(O)cc(O)cc21)C(=O)OC (stereo not drawn) [MCC_000635] |
| xxx (xxx = 0.1-<1) | x (x = >4) | xxx (xxx = 0.1-<1) | CNC(=O)[C@H](CCCCNC(=O)[C@H]1NC(=O)[C@H]2NC(=O)[C@H](NC(=O)[C@@H]3NC(=O)[C@H](CC(N)=O)NC(=O)[C@H](NC(=O)[C@@H](CC(C)C)NC)[C@H](O)c4ccc(c(Cl)c4)Oc4cc3cc(c4O[C@@H]3O[C@H](CO)[C@@H](O)[C@H](O)[C@H]3O[C@H]3C[C@](C)(N)[C@H](O)[C@H](C)O3)Oc3ccc(cc3Cl)[C@H]2O)c2ccc(O)c(c2)-c2c(O)cc(O)cc21)NC(=O)[C@H](CCCCN)NC(=O)[C@H](CCCCN)NC(=O)CNC(=O)c1ccc(Oc2ccccc2)cc1 [MCC_000647] |
| xxxx (xxxx = 0.01-<0.1) | xx (xx = 1-4) | xxxxx (xxxxx = <0.01) | CNC(=O)[C@H](CCCCNC(=O)[C@H]1NC(=O)[C@H]2NC(=O)[C@H](NC(=O)[C@@H]3NC(=O)[C@H](CC(N)=O)NC(=O)[C@H](NC(=O)[C@@H](CC(C)C)NC)[C@H](O)c4ccc(c(Cl)c4)Oc4cc3cc(c4O[C@@H]3O[C@H](CO)[C@@H](O)[C@H](O)[C@H]3O)Oc3ccc(cc3Cl)[C@H]2O)c2ccc(O)c(c2)-c2c(O)cc(O)cc21)NC(=O)[C@H](CCCCN)NC(=O)[C@H](CCCCN)NC(=O)[C@H](CCCCNC(=O)c1ccc(Oc2ccc(F)cc2)cc1)NC(=O)c1ccc(Oc2ccc(F)cc2)cc1 [MCC_000651] |
| xxxxx (xxxxx = <0.01) | xxx (xxx = 0.1-<1) | xxxxx (xxxxx = <0.01) | CNC(=O)[C@H](CCCCNC(=O)[C@H]1NC(=O)[C@H]2NC(=O)[C@H](NC(=O)[C@@H]3NC(=O)[C@H](CC(N)=O)NC(=O)[C@H](NC(=O)[C@@H](CC(C)C)NC)[C@H](O)c4ccc(c(Cl)c4)Oc4cc3cc(c4O[C@@H]3O[C@H](CO)[C@@H](O)[C@H](O)[C@H]3O[C@H]3C[C@](C)(N)[C@H](O)[C@H](C)O3)Oc3ccc(cc3Cl)[C@H]2O)c2ccc(O)c(c2)-c2c(O)cc(O)cc21)NC(=O)[C@H](CCCCN)NC(=O)[C@H](CCCCN)NC(=O)[C@H](CCCCNC(=O)Cc1ccc(-c2ccccc2)cc1)NC(=O)Cc1ccc(-c2ccccc2)cc1 [MCC_000652] |
| xxxx (xxxx = 0.01-<0.1) | xx (xx = 1-4) | xxxx (xxxx = 0.01-<0.1) | CNC(=O)[C@H](CCCCNC(=O)[C@H]1NC(=O)[C@H]2NC(=O)[C@H](NC(=O)[C@@H]3NC(=O)[C@H](CC(N)=O)NC(=O)[C@H](NC(=O)[C@@H](CC(C)C)NC)[C@H](O)c4ccc(c(Cl)c4)Oc4cc3cc(c4O[C@@H]3O[C@H](CO)[C@@H](O)[C@H](O)[C@H]3O)Oc3ccc(cc3Cl)[C@H]2O)c2ccc(O)c(c2)-c2c(O)cc(O)cc21)NC(=O)[C@H](CCCCN)NC(=O)[C@H](CCCCN)NC(=O)[C@H](CCCCNC(=O)Cc1ccc(-c2ccccc2)cc1)NC(=O)Cc1ccc(-c2ccccc2)cc1 [MCC_000653] |
| xxxx (xxxx = 0.01-<0.1) | xx (xx = 1-4) | xxxxx (xxxxx = <0.01) | CCCCCCCC(=O)NCCCC[C@H](NC(=O)CCCCCCC)C(=O)N[C@@H](CCCCN)C(=O)N[C@@H](CCCCN)C(=O)N[C@@H](CCCCNC(=O)[C@H]1NC(=O)[C@H]2NC(=O)[C@H](NC(=O)[C@@H]3NC(=O)[C@H](CC(N)=O)NC(=O)[C@H](NC(=O)[C@@H](CC(C)C)NC)[C@H](O)c4ccc(c(Cl)c4)Oc4cc3cc(c4O[C@@H]3O[C@H](CO)[C@@H](O)[C@H](O)[C@H]3O[C@H]3C[C@](C)(N)[C@H](O)[C@H](C)O3)Oc3ccc(cc3Cl)[C@H]2O)c2ccc(O)c(c2)-c2c(O)cc(O)cc21)C(=O)NC [MCC_000654] |
| xx (xx = 1-4) | x (x = >4) | xx (xx = 1-4) | CNC(=O)[C@H](CCCCNC(=O)[C@H]1NC(=O)[C@H]2NC(=O)[C@H](NC(=O)[C@@H]3NC(=O)[C@H](CC(N)=O)NC(=O)[C@H](NC(=O)[C@@H](CC(C)C)NC)[C@H](O)c4ccc(c(Cl)c4)Oc4cc3cc(c4O[C@@H]3O[C@H](CO)[C@@H](O)[C@H](O)[C@H]3O[C@H]3C[C@](C)(N)[C@H](O)[C@H](C)O3)Oc3ccc(cc3Cl)[C@H]2O)c2ccc(O)c(c2)-c2c(O)cc(O)cc21)NC(=O)[C@H](CCCCN)NC(=O)[C@H](CCCCN)NS(=O)(=O)c1ccc(C)cc1 [MCC_000764] |
